Reference: patent US11684591B2, “Use of a GABAA receptor allosteric enhancer in medicine” (XI'AN LIBANG ZHAOXIN BIOTECHNOLOGY CO., LTD., priority 2018, dated 2023)

Tests used:
[1] = tested on: PTZ-induced tonic-clonic seizures; test: Antiepileptic test in rats with PTZ-induced seizures; assay type: in vivo, male SD rats; set-up: key to Seizure Intensity (total score of 7 animals): summed score: grade V = 5, IV = 4, III = 3, below III = 0; settings: 45 mg/kg i.v.; for Number of episodes (animals), grade III / Number of episodes (animals), grade IV / Number of episodes (animals), grade V / Seizure Intensity (total score of 7 animals): n = 7
Experimental: 3. Antiepileptic Test of Compounds 1 and Dipropofol (3,3′, 5,5′-Tetraisopropyl-4,4′-Biphenol) in Rats with PTZ-Induced Seizures
In this test, male SD rats (Xi'an Jiaotong University), weighing 200 to 250 g, were used and intravenously administrated with 45 mg/kg of a Dipropofol injection, a Compound 1 injection, and blank solvent of the same volume. 1, 3, 5, 10, 15, 30, 60, 90 mins, and 120 mins after the intravenous administration, 70 mg/kg of PTZ was intraperitoneally injected in the rats to induce tonic-clonic seizures. 7 rats were used for each time point in each drug group. Rat seizure intensity was recorded in accordance with the Racine grading criteria in grade III to V seizure status. Scores were recorded according to the seizure intensity: 5 points for grade V, 4 points for grade IV, 3 points for grade III, and 0 point for below grade III.

[2] = Distribution in brain tissues after intravenous administration in rats (LC-MS/MS); assay type: in vivo, SD rats
Experimental: 1. Comparative Test of the Distribution in Brain Tissues of Compound 1 and Dipropofol (3,3′, 5,5′-Tetraisopropyl-4,4′-Biphenol) after Intravenous Administration in Rats
72 SD rats, weighing 200 to 220 g, were randomly divided into 12 groups (6 per time group), and fasted for 12 h before administration. A dose of 45 mg/kg was intravenously administered with Compound 1 or the dipropofol respectively, and the rates were sacrificed at 5 min, 15 min, 30 min, 1 h, 2 h and 4 h after the administration. The brain tissues were removed immediately, rinsed with ice-cold distilled water, blotted dry, and frozen at −40° C. for storage. The concentration of Compound 1 or the dipropofol in the brain tissues at different points in time after administration in rats was measured by LC-MS/MS, as shown in Table 1 and FIG. 1.

[3] = tested on: GABAA, Chloride Channel, TBPS; test: [35S]TBPS radioligand receptor competitive binding test; set-up: species or system rats; settings: [35S]TBPS competitive binding
Experimental: 2. In Vitro GABAA Receptor Target Affinity Test
A radioligand ([^35S] TBPS) receptor competitive binding test was used to evaluate the affinity of the test compound (10 uM) with GABAA receptors.

[4] = PTZ 70 mg/kg i.p. 1 min after administration
[5] = PTZ 70 mg/kg i.p. 3 min after administration
[6] = PTZ 70 mg/kg i.p. 5 min after administration
[7] = PTZ 70 mg/kg i.p. 10 min after administration
[8] = PTZ 70 mg/kg i.p. 15 min after administration
[9] = PTZ 70 mg/kg i.p. 30 min after administration
[10] = PTZ 70 mg/kg i.p. 60 min after administration
[11] = PTZ 70 mg/kg i.p. 90 min after administration
[12] = PTZ 70 mg/kg i.p. 120 min after administration

With CCCc1cc(-c2cc(CCC)c(O)c(C(C)C)c2)cc(C(C)C)c1O [Compound 1, 4,4′-dihydroxy-3,3′-diisopropyl-5,5′-dipropylbiphenyl] the “Number of episodes (animals), grade III” value [1, 4] was 2, the “Number of episodes (animals), grade IV” value [1, 4] was 2 and the “Number of episodes (animals), grade V” value [1, 4] was 0. For the same molecule, the “Seizure Intensity (total score of 7 animals)” value (“Seizure Intensity” below) [1, 4] was 14, the “Number of episodes (animals), grade III” value [1, 5] was 0 and the “Number of episodes (animals), grade IV” value [1, 5] was 0. The “Number of episodes (animals), grade V” value [1, 5] was 0, the “Seizure Intensity” value [1, 5] was 0 and the “Number of episodes (animals), grade III” value [1, 6] was 0. For the same molecule, the “Number of episodes (animals), grade IV” value [1, 6] was 0, the “Number of episodes (animals), grade V” value [1, 6] was 0 and the “Seizure Intensity” value [1, 6] was 0. For the same molecule, the “Number of episodes (animals), grade III” value [1, 7] was 0, the “Number of episodes (animals), grade IV” value [1, 7] was 0 and the “Number of episodes (animals), grade V” value [1, 7] was 0. For the same molecule, the “Seizure Intensity” value [1, 7] was 0, the “Number of episodes (animals), grade III” value [1, 8] was 0 and the “Number of episodes (animals), grade IV” value [1, 8] was 0. The “Number of episodes (animals), grade V” value [1, 8] was 0, the “Seizure Intensity” value [1, 8] was 0 and the “Number of episodes (animals), grade III” value [1, 9] was 0. For the same molecule, the “Number of episodes (animals), grade IV” value [1, 9] was 0, the “Number of episodes (animals), grade V” value [1, 9] was 0 and the “Seizure Intensity” value [1, 9] was 0. For the same molecule, the “Number of episodes (animals), grade III” value [1, 10] was 0, the “Number of episodes (animals), grade IV” value [1, 10] was 0 and the “Number of episodes (animals), grade V” value [1, 10] was 0. For the same molecule, the “Seizure Intensity” value [1, 10] was 0, the “Number of episodes (animals), grade III” value [1, 11] was 0 and the “Number of episodes (animals), grade IV” value [1, 11] was 0. The “Number of episodes (animals), grade V” value [1, 11] was 0, the “Seizure Intensity” value [1, 11] was 0 and the “Number of episodes (animals), grade III” value [1, 12] was 0. For the same molecule, the “Number of episodes (animals), grade IV” value [1, 12] was 0, the “Number of episodes (animals), grade V” value [1, 12] was 0 and the “Seizure Intensity” value [1, 12] was 0. For the same molecule, the “Time after administration for which the potency can be maintained” value ([1]; rats) was at least 120 min, the “AUC0-4h in the brain tissues relative to that of the dipropofol” value ([2]; 45 mg/kg i.v.) was “about 1.31 times” and the “Time at which concentration peaked in the brain tissues” value ([2]; 45 mg/kg i.v.) was 15 min. For the same molecule, the “Concentration in the brain tissues relative to that of the dipropofol” value ([2]; 45 mg/kg i.v., 5 min after administration) was 2.75 times, the concentration at 5 min ([2]; SD, rat, brain, iv, 45 mg/kg i.v., 5 min after administration, average, read-out: Drug concentration in brain tissues) was 35200 ng/g and the concentration at 15 min ([2]; SD, rat, brain, iv, 45 mg/kg i.v., 15 min after administration, average, read-out: Drug concentration in brain tissues) was 42700 ng/g. The concentration at 30 min ([2]; SD, rat, brain, iv, 45 mg/kg i.v., 30 min after administration, average, read-out: Drug concentration in brain tissues) was 39800 ng/g, the concentration at 1 h ([2]; SD, rat, brain, iv, 45 mg/kg i.v., 1 h after administration, average, read-out: Drug concentration in brain tissues) was 32000 ng/g and the concentration at 2 h ([2]; SD, rat, brain, iv, 45 mg/kg i.v., 2 h after administration, average, read-out: Drug concentration in brain tissues) was 22700 ng/g. The concentration at 4 h ([2]; SD, rat, brain, iv, 45 mg/kg i.v., 4 h after administration, average, read-out: Drug concentration in brain tissues) was 7750 ng/g, the “Brain entry rate and brain intake amount compared with dipropofol” value ([2]; same i.v. dose) was “significantly higher brain entry rate and brain intake amount than the dipropofol” and the “Affinity for the GABAA receptors (in words)” value [3] was “high affinity for the GABAA receptors, which affinity is comparable to that of the dipropofol”. For the same molecule, the IC50 ([3]; rats, test concentration 30, 10, 3, 1, 0.3 uM) was 2930 nM.
